From the supplement of paper PMC10307832

Tests used:
Assay in all cases: relative viability (nuclei count vs DMSO), 5 days (fraction); higher = more cells survive
[1] = compound: CC1=C(C(=O)N2C=CSC2=N1)CCN3CCC(=C(C4=CC=CC=C4)C5=CC=C(C=C5)F)CC3 + CC1(C)CCC(c2ccc(Cl)cc2)=C(CN2CCN(c3ccc(C(=O)NS(=O)(=O)c4ccc(N[C@H](CCN5CCOCC5)CSc5ccccc5)c(S(=O)(=O)C(F)(F)F)c4)cc3)CC2)C1 [Navitoclax] (partner 0.5 µM)
Outline: (§1)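 Relative viability equals treated-well nuclei counts divided by vehicle-well nuclei counts. Counts came from 4× images of lung cancer cell lines grown in 1536-well plates for 5 days after pin-tool dosing on the day after seeding. Dosing used one drug alone or a fixed anchor-drug dose plus five library-drug doses (not always all listed) in √10 steps, and values are medians of duplicate plates.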

[2] = compound: CC1=C(C(=O)N2C=CSC2=N1)CCN3CCC(=C(C4=CC=CC=C4)C5=CC=C(C=C5)F)CC3 + C[C@@H](Oc1cc(-c2cnn(C3CCNCC3)c2)cnc1N)c1c(Cl)ccc(F)c1Cl [Crizotinib] (partner 1 µM)
Outline: as §1

[3] = compound: CC1=C(C(=O)N2C=CSC2=N1)CCN3CCC(=C(C4=CC=CC=C4)C5=CC=C(C=C5)F)CC3 + Cc1nc(Nc2ncc(C(=O)Nc3c(C)cccc3Cl)s2)cc(N2CCN(CCO)CC2)n1 [Dasatinib] (partner 0.075 µM)
Outline: as §1

[4] = compound: CC1=C(C(=O)N2C=CSC2=N1)CCN3CCC(=C(C4=CC=CC=C4)C5=CC=C(C=C5)F)CC3 + O=C(CCCCCCC(=O)Nc1ccccc1)NO [Vorinostat] (partner 1 µM)
Outline: as §1

Row | Cell Line | relative viability ([1]; first compound 0.08 µM) | relative viability ([1]; first compound 0.253 µM) | relative viability ([1]; first compound 0.8 µM) | relative viability ([1]; first compound 2.53 µM) | relative viability ([1]; first compound 8 µM) | relative viability ([2]; first compound 0.08 µM) | relative viability ([2]; first compound 0.253 µM) | relative viability ([2]; first compound 0.8 µM) | relative viability ([2]; first compound 2.53 µM) | relative viability ([2]; first compound 8 µM) | relative viability ([3]; first compound 0.08 µM) | relative viability ([3]; first compound 0.253 µM) | relative viability ([3]; first compound 0.8 µM) | relative viability ([3]; first compound 2.53 µM) | relative viability ([3]; first compound 8 µM) | relative viability ([4]; first compound 0.08 µM) | relative viability ([4]; first compound 0.253 µM) | relative viability ([4]; first compound 0.8 µM) | relative viability ([4]; first compound 2.53 µM) | relative viability ([4]; first compound 8 µM)
1 | ChaGo-K-1 | 1.19 | 0.888 | 0.663 | 1.69 | 1.11 | 1.17 | 1.32 | 1.29 | 0.706 | 1.03 | 0.598 | 0.635 | 0.59 | 0.639 | 0.547 | 0.616 | 0.76 | 0.809 | 0.757 | 0.597
2 | LK-2 | 0.741 | 0.962 | 1.11 | 1.05 | 0.703 | 0.291 | 0.234 | 0.202 | 0.293 | 0.29 | 0.273 | 0.249 | 0.354 | 0.282 | 0.268 | 0.266 | 0.233 | 0.333 | 0.319 | 0.199
3 | NCI-H2126 | 0.835 | 0.839 | 0.846 | 0.971 | 0.799 | 1.08 | 1.03 | 1.09 | 1.02 | 0.992 | 0.529 | 0.553 | 0.565 | 0.634 | 0.689 | 0.794 | 0.852 | 0.784 | 0.802 | 0.631
4 | EPLC-272H |  | 1.18 | 1.27 | 1.14 | 0.827 |  | 1.12 | 0.934 | 1.07 | 0.738 | 0.364 | 0.331 | 0.378 | 0.305 | 0.22 | 0.41 |  | 0.444 | 0.505 | 0.474
5 | NCI-H2170 | 0.515 | 0.605 | 0.649 | 0.492 | 0.58 | 1.2 | 1.17 | 1.36 | 1.11 | 0.927 | 0.516 | 0.472 | 0.65 | 0.669 | 0.496 | 0.638 | 0.791 | 0.739 | 0.715 | 0.463
6 | LXF-289 | 0.917 | 1.19 | 0.947 | 0.97 | 0.816 | 0.911 | 0.93 | 0.891 | 0.797 | 0.773 | 0.276 | 0.18 | 0.214 | 0.209 | 0.189 | 0.527 | 0.813 | 0.75 | 0.738 | 0.613
7 | NCI-H838 | 0.986 | 1.08 | 1.15 | 1.62 | 0.494 | 0.583 | 0.854 | 0.837 | 0.925 | 0.616 | 0.295 | 0.27 | 0.258 | 0.31 | 0.282 | 0.688 | 0.692 | 0.738 | 0.8 | 0.573
8 | NCI-H2347 | 0.313 | 0.739 | 0.89 | 0.663 | 0.552 | 0.692 | 0.801 | 0.675 | 0.508 | 0.684 | 0.263 | 0.31 | 0.311 | 0.48 | 0.283 | 0.538 | 0.603 | 0.573 | 0.579 | 0.453
9 | BEN | 0.0374 | 0.0689 | 0.0632 | 0.23 | 0.108 | 0.725 | 0.818 | 0.963 | 0.963 | 0.69 | 0.318 | 0.319 | 0.294 | 0.362 | 0.284 | 0.548 | 0.589 | 0.523 | 0.682 | 0.495
10 | LU99A | 0.919 | 0.867 | 0.734 | 0.929 | 0.631 | 0.602 | 0.636 | 0.558 | 0.625 | 0.444 | 0.507 | 0.544 | 0.57 | 0.551 | 0.422 | 0.433 | 0.418 | 0.381 | 0.525 | 0.207
11 | NCI-H1755 | 0.932 | 1.02 | 1.1 | 1.02 | 0.56 | 0.927 | 0.87 | 0.907 | 0.997 | 0.722 | 0.373 | 0.422 | 0.462 | 0.401 | 0.269 | 0.704 | 0.71 | 0.789 | 0.759 | 0.571
12 | NCI-H1437 |  | 0.924 | 1.09 | 1.44 | 0.693 |  | 0.902 | 0.978 | 1.03 | 0.604 | 0.471 | 0.346 | 0.434 | 0.426 | 0.339 | 0.702 | 0.867 | 0.901 | 0.9 | 0.386
13 | NCI-H2085 | 1.12 | 1.1 | 1.21 | 1.1 | 0.908 | 0.692 | 0.986 | 0.921 | 0.861 | 0.649 | 0.279 | 0.224 | 0.202 | 0.242 | 0.258 | 0.85 | 0.827 | 0.758 | 0.807 | 0.707
14 | RERF-LC-KJ | 0.933 | 0.769 | 0.806 | 1 | 0.681 | 0.789 | 0.851 | 0.775 | 0.835 | 0.795 | 0.706 | 0.892 | 0.879 | 0.688 | 0.492 | 0.617 | 0.658 | 0.793 | 0.716 | 0.48
15 | LOU-NH91 | 0.625 | 0.663 | 0.758 | 0.698 | 0.604 | 0.701 | 0.747 | 0.715 | 0.772 | 0.726 | 0.527 | 0.586 | 0.557 | 0.594 | 0.435 | 0.973 | 0.832 | 0.856 | 0.948 | 0.776
16 | NCI-H2228 | 0.693 | 0.914 | 0.811 | 0.838 | 0.623 | 0.6 | 0.486 | 0.376 | 0.539 | 0.322 | 0.542 | 0.555 | 0.562 | 0.546 | 0.338 | 0.474 | 0.557 | 0.636 | 0.599 | 0.337
17 | NCI-H322M | 0.987 | 1.29 | 1.34 | 1.36 | 0.889 | 0.732 | 0.948 | 0.878 | 0.696 | 0.834 | 0.267 | 0.238 | 0.246 | 0.254 | 0.27 | 0.898 | 0.845 | 0.862 | 0.953 | 0.943
18 | NCI-H1650 | 0.992 | 1.2 | 1.16 | 1.44 | 0.865 | 0.892 | 1.14 | 0.957 | 1.01 | 0.872 | 0.436 | 0.324 | 0.297 | 0.405 | 0.263 | 0.426 | 0.525 | 0.559 | 0.593 | 0.327
19 | NCI-H1734 | 0.732 | 0.818 | 0.966 | 0.795 | 0.493 | 0.661 | 0.653 | 0.625 | 0.672 | 0.467 | 0.484 | 0.438 | 0.458 | 0.468 | 0.35 | 0.881 | 0.652 | 0.734 | 0.86 | 0.747
20 | HOP-62 | 0.516 | 0.989 | 1.23 | 0.796 | 0.466 | 1.01 | 0.939 | 0.744 | 0.701 | 0.442 | 0.595 | 0.482 | 0.621 | 0.575 | 0.548 | 0.522 | 0.628 | 0.552 | 0.468 | 0.323
21 | HCC-366 |  | 1.09 | 1.04 | 1.13 | 0.343 |  | 0.539 | 0.587 | 0.448 | 0.616 | 0.697 | 0.631 | 0.711 | 0.545 | 0.247 | 0.344 | 0.405 | 0.332 | 0.403 | 0.256
22 | SK-MES-1 | 1.36 | 1.21 | 1.41 | 1.47 | 0.86 | 1.11 | 0.969 | 0.975 | 1.1 | 0.916 | 0.383 | 0.273 | 0.27 | 0.334 | 0.369 | 1.1 | 1.18 | 1.29 | 1.17 | 0.698
23 | NCI-H1915 | 0.741 | 0.691 | 0.832 | 0.807 | 0.725 | 0.953 | 1.01 | 0.957 | 0.862 | 0.521 | 0.371 | 0.315 | 0.305 | 0.374 | 0.252 | 0.554 | 0.584 | 0.538 | 0.524 | 0.383
24 | NCI-H1666 | 0.991 | 0.854 | 1.04 | 1.16 | 0.836 | 0.909 | 0.939 | 0.839 | 0.937 | 0.866 | 0.794 | 0.689 | 0.827 | 0.861 | 0.63 | 1 | 0.911 | 1.11 | 1.09 | 0.891
25 | LC-2-ad | 0.384 | 0.393 | 0.489 | 0.5 | 0.335 | 0.46 | 0.342 | 0.415 | 0.522 | 0.475 | 0.766 | 0.538 | 0.422 | 0.644 | 0.497 | 0.661 | 0.517 | 0.771 | 0.748 | 0.53
26 | HCC-827 | 1.06 | 1.1 | 1.01 | 1.07 | 0.946 | 0.898 | 0.924 | 0.911 | 0.98 | 0.946 | 0.212 | 0.288 | 0.38 | 0.3 | 0.265 | 0.831 | 0.655 | 0.797 | 0.953 | 0.688
27 | NCI-H727 | 0.346 | 0.481 | 0.444 | 0.48 | 0.383 | 0.846 | 0.934 | 0.741 | 0.948 | 0.59 | 0.319 | 0.338 | 0.394 | 0.396 | 0.319 | 1.08 | 1.3 | 1.16 | 1.13 | 1.07
